The values that follow come from patent US20230331655A1, “HYDROXYN[…] AND METHODS OF USE THEREOF” (UNIVERSITY OF MARYLAND, BALTIMORE, priority 2020, published 2023).

The nature of series [1]: pharmacokinetics in plasma and brain after intraperitoneal administration (UPLC-MS/MS). In kind it is in vivo, mouse. Also on record: key to Brain Concentration over time, sex-dependent difference / Plasma Concentration over time, sex-dependent difference: F, female; M, male; NS, not statistically different. The conditions noted are these: i.p. 5 mg/kg; for t1/2 Brain / t1/2 Plasma: terminal half-life; for Brain Concentration over time, sex-dependent difference / Plasma Concentration over time, sex-dependent difference / Plasma Total exposure (AUC), sex-dependent difference / Brain Total exposure (AUC), sex-dependent difference: female vs male mice; for Brain Concentration over time, sex-dependent difference / Plasma Concentration over time, sex-dependent difference: ANOVA, Holm-Šídák post-hoc; for Plasma Total exposure (AUC), sex-dependent difference / Brain Total exposure (AUC), sex-dependent difference: t-test; for brain concentration at 4 h post-treatment: LLOQ 5.0 ng/ml. On the procedure: Male and female CD-1 mice (Charles Rivers Laboratories, Raleigh, NC, USA), 8-11 weeks old at the time of testing, were habituated to the University of Maryland (Baltimore, MD, USA) animal facility for at least one week prior to testing. Mice were group housed 4-5 per cage with a constant 12-hour light cycle (lights on/off at 07:00/19:00). Food and water were available ad libitum. All experiments were performed during the light phase. All animal studies were approved by the University of Maryland School of Medicine Institutional Animal Care and Use Committee and conducted in accordance with the National Institutes of Health Guide for the Care and Use of Laboratory Animals.
(2R,6R)-HNK hydrochloride, (2S,6S)-HNK hydrochloride, (2R,6S)-HNK, (2S,6R)-HNK, (2R,5R)-HNK, (2S,5S)-HNK, (2R,5S)-HNK, (2S,5R)-HNK, (2R,4R)-HNK, (2S,4S)-HNK, (2R,4S)-HNK, and (2S,4R)-HNK hydrochloride were synthesized at the National Center for Advancing Translation Sciences (National Institutes of Health, Rockville, MD, USA) using methods previously described in Morris et al., Org Lett 17:4572-4575 (2017), which is incorporated by reference herein in its entirety. (5R)-methyl-(2R,6R)-HNK was obtained from Organix Inc. (Woburn, MA, USA) or from the National Center for Advancing Translational Sciences (Rockville, MD, USA); synthesis and characterization are described in the Supplemental Information. All compounds were dissolved in 20% (w/v) cyclodextrin (Sigma Aldrich, USA) in saline and administered intraperitoneally (i.p.) in a volume of 7.5 ml/kg.
At 10 min (0.167 h), 30 min (0.5 h), 1 h, 2 h, and 4 h post-treatment, mice were deeply anesthetized (3.5% isoflurane for approximately 2 min). Trunk blood was collected into 1.5-ml polypropylene tubes containing 30 μl of disodium EDTA (0.5 M, pH 8.0) and kept on ice until plasma collection (<30 min). Brains were then removed, flash-frozen in isopentane, and stored at −80° C. until analysis. Blood was centrifuged at 8000×g for 6 min at 4° C. to obtain plasma. Plasma was collected into clean microcentrifuge tubes and stored at −80° C. until analysis.
Ultra-performance liquid chromatography-tandem mass spectrometry (UPLC-MS/MS) methods were developed and optimized to determine the concentration of each HNK in mouse plasma and brain samples following systemic administration. Mass spectrometric analysis was performed on a Waters Xevo TQ-S triple quadrupole instrument using electrospray ionization in positive mode with the selected reaction monitoring. The separation of HNKs from endogenous components was performed on a Waters Acquity UPLC with 0.5 ml/min flow rate and gradient elution. The mobile phase A and B were 0.1% formic acid in water and 0.1% formic acid in acetonitrile, respectively. Plasma and brain concentrations of (2R,6R)-, (2S,6S)-, (2R,4S)-, and (2S,4R)-HNK were determined by hydrophilic interaction liquid chromatography-tandem mass spectrometry (HILIC UPLC-MS/MS) using a BEH amide column (1.7μ, 2.1×50 mm). Plasma and brain concentrations of (2R,6S)-, (2S,6R)-, (2R,5R)- (2S,5S)-, (2R,5S)-, (2S,5R)-, (2R,4R)-, and (2S,4S)-HNK; and (5R)-methyl-(2R,6R)-HNK were determined by reversed phase UPLC-MS/MS based upon a previously described protocol with several modifications using a BEH C18 column ([…], 2.1×50 mm). See Moaddel et al., Talanta 82:1892-1904 (2010), and Zanos et al., Nature 533:481-486 ([…]), both of which are incorporated by reference herein in their entireties.
The gradient for HILIC UPLC method was: 0-0.2 min 98% B; 0.2-1.4 min 98% to 35% B; 1.4-1.8 min 35% to 10% B, 1.9-2.4 min 98% B. The gradient for BEH Cis UPLC method was: 0-0.2 min 1% B; 0.2-1.4 min 1% to 35% B; 1.4-1.8 min 35% to 98% B, 1.8-2.2 min 98% B, 2.3 min 1% B. The analytical run time of the UPLC methods was 2.5 min. The calibration standards and quality control samples were prepared in blank mouse plasma and brain homogenate. Calibration standards ranged from 5.0-5000 ng/ml. […]

The target of a further series is NMDARs. The conditions noted are these: read-out: Ki (binding / inhibition of NMDARs); cited from earlier work.

The structures appear in SMILES notation.

As for `N[C@@]1(c2ccccc2Cl)CC[C@@H](O)CC1=O` [(2R,5R)-HNK], in series [1] (female mice), the “B:P ratio (brain to plasma AUC ratio)” value is on record as 1.4, the “t1/2 Brain” value came to 30 min and the “t1/2 Plasma” value was determined as 30 min. Also, in series [1], the “Brain Concentration over time, sex-dependent difference” value is “NS”; the “Plasma Concentration over time, sex-dependent difference” value is “main effect of sex, M > F”; the “Plasma Total exposure (AUC), sex-dependent difference” value is “M > F”. In series [1] (male mice), the “B:P ratio (brain to plasma AUC ratio)” value was 1.2, the “t1/2 Brain” value came out at 24 min and the “t1/2 Plasma” value worked out at 30 min.

As for `N[C@]1(c2ccccc2Cl)CC[C@H](O)CC1=O` [(2S,5S)-HNK], the “brain concentration at 4 h post-treatment” value in series [1] (both sexes) is listed as “below LLOQs”. Also, in series [1] (female mice), the “B:P ratio (brain to plasma AUC ratio)” value worked out at 1.3, the “t1/2 Brain” value was 18 min and the “t1/2 Plasma” value was 36 min. Also, in series [1], the “Brain Concentration over time, sex-dependent difference” value is “NS” and the “Plasma Concentration over time, sex-dependent difference” value is given as “NS”. Moreover, in series [1] (male mice), the “B:P ratio (brain to plasma AUC ratio)” value is 1.2, the “t1/2 Brain” value was found to be 18 min and the “t1/2 Plasma” value came to 30 min.

As to `N[C@@]1(c2ccccc2Cl)C[C@H](O)CCC1=O` [(2R,4R)-HNK], in series [1] (female mice), the “B:P ratio (brain to plasma AUC ratio)” value was found to be 1.2, the “t1/2 Brain” value came to 30 min and the “t1/2 Plasma” value was 30 min. Besides, in series [1], the “Brain Concentration over time, sex-dependent difference” value is recorded as “F > M at 10 min”; the “Plasma Concentration over time, sex-dependent difference” value is reported as “F > M at 10 min”; the “Brain Total exposure (AUC), sex-dependent difference” value is “M > F”; the “Plasma Total exposure (AUC), sex-dependent difference” value is on record as “M > F”. In addition, in series [1] (male mice), the “B:P ratio (brain to plasma AUC ratio)” value is recorded as 1.3, the “Tmax in the brain” value is 30 min, the “t1/2 Brain” value was 36 min and the “t1/2 Plasma” value is 36 min.

With `N[C@@]1(c2ccccc2Cl)C[C@@H](O)CCC1=O` [(2R,4S)-HNK], in series [1] (female mice), the “B:P ratio (brain to plasma AUC ratio)” value is reported as 1.0, the “t1/2 Brain” value came to 18 min and the “t1/2 Plasma” value was 42 min. In addition, in series [1], the “Brain Concentration over time, sex-dependent difference” value is recorded as “M > F at 10, 30, 60 min”; the “Plasma Concentration over time, sex-dependent difference” value was “M > F at 10, 30 min”; the “Brain Total exposure (AUC), sex-dependent difference” value is given as “M > F”; the “Plasma Total exposure (AUC), sex-dependent difference” value is “M > F”. Further, in series [1] (females, but not males), the “brain concentration at 4 h post-treatment” value is given as “below LLOQs”. Further, in series [1] (male mice), the “B:P ratio (brain to plasma AUC ratio)” value was 1.1, the “t1/2 Brain” value amounted to 30 min and the “t1/2 Plasma” value stood at 36 min.

Take `CNC1(c2ccccc2Cl)CCCCC1=O` (stereo not shown) [ketamine, reference compound]: the Ki at NMDARs was 250 to 1060 nM.

With `N[C@]1(c2ccccc2Cl)C[C@H](O)CCC1=O` [(2S,4R)-HNK], the “brain concentration at 4 h post-treatment” value in series [1] (both sexes) is listed as “below LLOQs”. Moreover, in series [1] (female mice), the “B:P ratio (brain to plasma AUC ratio)” value was determined as 1.0, the “t1/2 Brain” value came out at 18 min and the “t1/2 Plasma” value was determined as 24 min. Also, in series [1], the “Brain Concentration over time, sex-dependent difference” value is recorded as “F > M at 10 min” and the “Plasma Concentration over time, sex-dependent difference” value is “F > M at 10 min”. Moreover, in series [1] (male mice), the “B:P ratio (brain to plasma AUC ratio)” value is recorded as 0.9, the “t1/2 Brain” value is 24 min and the “t1/2 Plasma” value was found to be 30 min.

In the case of `N[C@]1(c2ccccc2Cl)C[C@@H](O)CCC1=O` [(2S,4S)-HNK], in series [1] (female mice), the “B:P ratio (brain to plasma AUC ratio)” value is listed as 0.9, the “t1/2 Brain” value was determined as 36 min and the “t1/2 Plasma” value stood at 42 min. For the same molecule, in series [1], the “Brain Concentration over time, sex-dependent difference” value is on record as “F > M at 10, 30 min”; the “Plasma Concentration over time, sex-dependent difference” value is “F > M at 10, 30 min”; the “Brain Total exposure (AUC), sex-dependent difference” value is “F > M”; the “Plasma Total exposure (AUC), sex-dependent difference” value is on record as “F > M”. In addition, in series [1] (male mice), the “B:P ratio (brain to plasma AUC ratio)” value came out at 0.7, the “t1/2 Brain” value was found to be 36 min and the “t1/2 Plasma” value stood at 42 min.

Regarding `N[C@]1(c2ccccc2Cl)CC[C@@H](O)CC1=O` [(2S,5R)-HNK], in series [1] (female mice), the “B:P ratio (brain to plasma AUC ratio)” value was found to be 1.0, the “t1/2 Brain” value amounted to 30 min and the “t1/2 Plasma” value is 30 min. Also, in series [1], the “Brain Concentration over time, sex-dependent difference” value was “NS”; the “Plasma Concentration over time, sex-dependent difference” value is reported as “M > F at 30, 60 min”; the “Brain Total exposure (AUC), sex-dependent difference” value is given as “M > F”; the “Plasma Total exposure (AUC), sex-dependent difference” value is “M > F”. In series [1] (male mice), the “B:P ratio (brain to plasma AUC ratio)” value is recorded as 0.7, the “Tmax in the brain” value is given as 30 min, the “t1/2 Brain” value is 42 min and the “t1/2 Plasma” value is 36 min.

On to `N[C@@]1(c2ccccc2Cl)CC[C@H](O)CC1=O` [(2R,5S)-HNK], for which, in series [1] (female mice), the “B:P ratio (brain to plasma AUC ratio)” value came to 1.0, the “Tmax in the brain” value worked out at 30 min, the “t1/2 Brain” value is 30 min and the “t1/2 Plasma” value stood at 30 min. In series [1], the “Brain Concentration over time, sex-dependent difference” value is on record as “F > M at 10, 30 min”; the “Plasma Concentration over time, sex-dependent difference” value is reported as “F > M at 10, 30 min”; the “Brain Total exposure (AUC), sex-dependent difference” value was “F > M”; the “Plasma Total exposure (AUC), sex-dependent difference” value was “F > M”. For the same molecule, in series [1] (male mice), the “B:P ratio (brain to plasma AUC ratio)” value was found to be 0.9, the “t1/2 Brain” value worked out at 30 min and the “t1/2 Plasma” value was 30 min.
